Measured values reported in PubChem BioAssay AID330 (DTP/NCI, 2004).
Where “and” joins values, the source holds several entries; their conditions need not be identical. Equal values may be shown once. Toxic doses and inconclusive results are not listed.

Test system: P388 leukemia ip, CD2F1 mice, survival T/C
Assay: NCI In Vivo Anticancer Drug Screen. Data for tumor model P388 Leukemia (intraperitoneal) in CD2F1 (CDF1) mice
Settings: endpoint: median survival time, higher = longer survival
Procedure, shortened: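 Mice carrying the transplanted tumor received test compound or vehicle. Survival was recorded in each group, and the value is the treated-group measurement divided by that of the vehicle-treated control group.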

[1] = dose: 50.0 mg/kg/injection, schedule: Q01DX009 (ip), vehicle: saline
[2] = dose: 100.0 mg/kg/injection, schedule: Q01DX009 (ip), vehicle: saline with Tween-80
[3] = dose: 100.0 mg/kg/injection, schedule: Q01DX009 (ip), vehicle: saline
[4] = dose: 200.0 mg/kg/injection, schedule: Q01DX009 (ip), vehicle: saline with Tween-80
[5] = dose: 200.0 mg/kg/injection, schedule: Q01DX009 (ip), vehicle: saline
[6] = dose: 60.0 mg/kg/injection, schedule: Q01DX005 (ip), vehicle: Klucel (hydroxypropylcellulose) (HPC)
[7] = dose: 120.0 mg/kg/injection, schedule: Q01DX005 (ip), vehicle: Klucel (hydroxypropylcellulose) (HPC)
[8] = dose: 240.0 mg/kg/injection, schedule: Q01DX005 (ip), vehicle: Klucel (hydroxypropylcellulose) (HPC)
[9] = dose: 12.5 mg/kg/injection, schedule: Q01DX009 (ip), vehicle: saline with Tween-80
[10] = dose: 25.0 mg/kg/injection, schedule: Q01DX009 (ip), vehicle: saline with Tween-80
[11] = dose: 50.0 mg/kg/injection, schedule: Q01DX005 (ip), vehicle: saline with Tween-80
[12] = dose: 50.0 mg/kg/injection, schedule: Q01DX009 (ip), vehicle: saline with Tween-80
[13] = dose: 100.0 mg/kg/injection, schedule: Q01DX005 (ip), vehicle: saline with Tween-80
[14] = dose: 60.0 mg/kg/injection, schedule: Q01DX005 (ip), vehicle: saline with Tween-80
[15] = dose: 120.0 mg/kg/injection, schedule: Q01DX005 (ip), vehicle: saline with Tween-80
[16] = dose: 50.0 mg/kg/injection, schedule: Q01DX009 (ip), vehicle: Klucel (hydroxypropylcellulose) (HPC)
[17] = dose: 100.0 mg/kg/injection, schedule: Q01DX009 (ip), vehicle: Klucel (hydroxypropylcellulose) (HPC)
[18] = dose: 240.0 mg/kg/injection, schedule: Q01DX005 (ip), vehicle: saline with Tween-80

CCOC(=O)C(CNc1ccc(O)cc1)NC(=O)c1ccccc1 (stereo unspecified)
T/C [1]: 101 % of control | T/C [2]: 94 % of control | T/C [3]: 103 % of control | T/C [4]: 94 % of control | T/C [5]: 102 % of control | T/C (dose: 400.0 mg/kg/injection, schedule: Q01DX009 (ip), vehicle: saline with Tween-80): 94 % of control | T/C (dose: 400.0 mg/kg/injection, schedule: Q01DX009 (ip), vehicle: saline): 101 % of control

O=C1OC2(C=C(O)C1=O)CCCCC2
T/C [6]: 106 % of control | T/C [7]: 107 % of control | T/C [8]: 116 % of control

CC1(C)CC(=O)C(C(c2ccc3c(c2)OCO3)C2C(=O)CC(C)(C)CC2=O)C(=O)C1
T/C (dose: 50.0 mg/kg/injection, schedule: Q01DX005 (ip), vehicle: Klucel (hydroxypropylcellulose) (HPC)): 91 % of control | T/C (dose: 100.0 mg/kg/injection, schedule: Q01DX005 (ip), vehicle: Klucel (hydroxypropylcellulose) (HPC)): 101 % of control | T/C (dose: 200.0 mg/kg/injection, schedule: Q01DX005 (ip), vehicle: Klucel (hydroxypropylcellulose) (HPC)): 104 % of control

CCN(CC)Cc1cc2[nH]c3c4ccc(Cl)cc4ncc3c2cc1OC
T/C (dose: 6.25 mg/kg/injection, schedule: Q01DX009 (ip), vehicle: saline with Tween-80): 101 % of control | T/C [9]: 100 % of control | T/C [10]: 98 % of control | T/C [11]: 112 % of control | T/C [12]: 87 % of control and 94 % of control | T/C [13]: 102 % of control

CCC[As](CCC)SC1OC(C2COC(C)(C)O2)C2OC(C)(C)OC12 (stereo unspecified)
T/C (dose: 12.5 mg/kg/injection, schedule: Q01DX009 (ip), vehicle: distilled water + Tween-80): 100 % of control | T/C (dose: 25.0 mg/kg/injection, schedule: Q01DX009 (ip), vehicle: distilled water + Tween-80): 110 % of control

CC([NH-])C[NH-].O=S(=O)(O)O.[Pt+2] (stereo unspecified)
T/C (dose: 3.12 mg/kg/injection, schedule: Q04DX002 (ip), vehicle: saline): 154 % of control | T/C (dose: 12.5 mg/kg/injection, schedule: Q04DX002 (ip), vehicle: saline): 90 % of control and 118 % of control

CC(N)CCc1ccccc1 (stereo unspecified)
T/C (dose: 12.5 mg/kg/injection, schedule: Q01DX009 (ip), vehicle: saline sonified): 100 % of control | T/C (dose: 25.0 mg/kg/injection, schedule: Q01DX009 (ip), vehicle: saline sonified): 100 % of control | T/C (dose: 50.0 mg/kg/injection, schedule: Q01DX009 (ip), vehicle: saline sonified): 100 % of control

c1ccc(-c2ccc[n+](CC[n+]3cccc(-c4ccccn4)c3)c2)nc1
T/C [14]: 104 % of control | T/C [15]: 100 % of control

CCCCNP(=O)(N1CC1C)N1CC1C (stereo unspecified)
T/C (dose: 8.25 mg/kg/injection, schedule: Q01DX009 (ip), vehicle: saline): 112 % of control | T/C (dose: 12.5 mg/kg/injection, schedule: Q01DX009 (ip), vehicle: saline): 120 % of control | T/C (dose: 25.0 mg/kg/injection, schedule: Q01DX009 (ip), vehicle: saline): 109 % of control | T/C [1]: 86 % of control

NC(=O)c1c[n+]([O-])ccc1[N+](=O)[O-]
T/C (dose: 6.25 mg/kg/injection, schedule: Q01DX009 (ip), vehicle: Klucel (hydroxypropylcellulose) (HPC)): 108 % of control | T/C (dose: 12.5 mg/kg/injection, schedule: Q01DX009 (ip), vehicle: Klucel (hydroxypropylcellulose) (HPC)): 117 % of control | T/C (dose: 25.0 mg/kg/injection, schedule: Q01DX009 (ip), vehicle: Klucel (hydroxypropylcellulose) (HPC)): 117 % of control | T/C [16]: 119 % of control

N#Cc1c2c(c(O)[nH]c1=O)C(=O)c1ccccc1-2
T/C [9]: 115 % of control | T/C [10]: 104 % of control | T/C [12]: 93 % of control

CCCCN(C(=O)N(CC)CC)[Si](C)(C)C
T/C [16]: 107 % of control | T/C [17]: 100 % of control | T/C (dose: 200.0 mg/kg/injection, schedule: Q01DX009 (ip), vehicle: Klucel (hydroxypropylcellulose) (HPC)): 107 % of control

O/N=C(/Cc1nc2cc(Cl)c(Cl)cc2nc1C/C(=N/O)c1ccc(Cl)cc1)c1ccc(Cl)cc1
T/C [14]: 99 % of control | T/C [15]: 99 % of control | T/C [18]: 107 % of control

COc1cc([C@@H]2c3cc4c(cc3C[C@H]3COC(=O)[C@@H]32)OCO4)cc2c1OCO2
T/C (dose: 1.8 mg/kg/injection, schedule: Q01DX009 (ip), vehicle: distilled water + Tween-80): 113 % of control | T/C (dose: 3.0 mg/kg/injection, schedule: Q01DX009 (ip), vehicle: Klucel (hydroxypropylcellulose) (HPC)): 109 % of control | T/C (dose: 3.75 mg/kg/injection, schedule: Q01DX009 (ip), vehicle: distilled water + Tween-80): 95 % of control | T/C (dose: 6.0 mg/kg/injection, schedule: Q01DX009 (ip), vehicle: Klucel (hydroxypropylcellulose) (HPC)): 118 % of control | T/C (dose: 12.0 mg/kg/injection, schedule: Q01DX009 (ip), vehicle: Klucel (hydroxypropylcellulose) (HPC)): 122 % of control

O=C(c1cccc(C(=O)N2CCOCC2)n1)N1CCOCC1
T/C (dose: 60.0 mg/kg/injection, schedule: Q01DX005 (ip), vehicle: saline): 106 % of control | T/C (dose: 120.0 mg/kg/injection, schedule: Q01DX005 (ip), vehicle: saline): 100 % of control | T/C (dose: 240.0 mg/kg/injection, schedule: Q01DX005 (ip), vehicle: saline): 106 % of control

Nc1nc(N)nc(-c2ccccc2)n1
T/C (dose: 50.0 mg/kg/injection, schedule: Q01DX009 (ip), vehicle: suspension in saline): 106 % of control | T/C (dose: 100.0 mg/kg/injection, schedule: Q01DX009 (ip), vehicle: suspension in saline): 99 % of control | T/C (dose: 200.0 mg/kg/injection, schedule: Q01DX009 (ip), vehicle: suspension in saline): 106 % of control

COP(=S)(NC(C)C)Oc1ccc(C)cc1[N+](=O)[O-] (stereo unspecified)
T/C [12]: 98 % of control | T/C [2]: 100 % of control | T/C [4]: 90 % of control

COc1cc(C(c2cc3c(cc2O)OCO3)N2CCCCC2)cc(OC)c1OC (stereo unspecified)
T/C [14]: 111 % of control and 118 % of control and 123 % of control | T/C [15]: 111 % of control and 118 % of control | T/C [18]: 103 % of control | T/C (dose: 480.0 mg/kg/injection, schedule: Q01DX005 (ip), vehicle: saline with Tween-80): 118 % of control

O=P1(c2ccccc2)CCCCN1Cc1ccccc1 (stereo unspecified)
T/C (dose: 100.0 mg/kg/injection, schedule: Q04DX003 (ip), vehicle: saline): 108 % of control | T/C (dose: 200.0 mg/kg/injection, schedule: Q04DX003 (ip), vehicle: saline): 94 % of control | T/C (dose: 400.0 mg/kg/injection, schedule: Q04DX003 (ip), vehicle: saline): 116 % of control

C=CCOc1cc(=O)[nH]c2ccccc12
T/C [6]: 100 % of control | T/C [7]: 97 % of control | T/C [8]: 91 % of control

O=C(CCc1ccc(O)cc1)c1c(O)cc(O)cc1O
T/C [11]: 107 % of control | T/C (dose: 50.0 mg/kg/injection, schedule: Q01DX009 (ip), vehicle: saline + alcohol): 112 % of control | T/C [13]: 108 % of control | T/C (dose: 100.0 mg/kg/injection, schedule: Q01DX009 (ip), vehicle: saline + alcohol): 117 % of control | T/C (dose: 200.0 mg/kg/injection, schedule: Q01DX005 (ip), vehicle: saline with Tween-80): 114 % of control | T/C (dose: 200.0 mg/kg/injection, schedule: Q01DX009 (ip), vehicle: saline + alcohol): 108 % of control | T/C (dose: 400.0 mg/kg/injection, schedule: Q01DX005 (ip), vehicle: saline with Tween-80): 114 % of control

C1N2CN3CN1CN(C2)C3 (tested in a mixture with another compound)
T/C [1]: 107 % of control | T/C [3]: 101 % of control | T/C [5]: 107 % of control

CN(C)CC1CC1C1(C)c2ccccc2Sc2ccccc21 (stereo unspecified)
T/C [16]: 98 % of control | T/C [17]: 95 % of control

CCOc1ccc(N=Nc2c(C)nn(C(N)=S)c2OCC)cc1
T/C (dose: 15.0 mg/kg/injection, schedule: Q01DX005 (ip), vehicle: Klucel (hydroxypropylcellulose) (HPC)): 100 % of control | T/C (dose: 30.0 mg/kg/injection, schedule: Q01DX005 (ip), vehicle: Klucel (hydroxypropylcellulose) (HPC)): 97 % of control

COc1ccc(C2ON=C(c3cc(C)cc(Br)c3O)C2[N+](=O)[O-])cc1 (stereo unspecified)
T/C (dose: 100.0 mg/kg/injection, schedule: Q04DX002 (ip), vehicle: saline with Tween-80): 90 % of control | T/C (dose: 200.0 mg/kg/injection, schedule: Q04DX002 (ip), vehicle: saline with Tween-80): 94 % of control | T/C (dose: 400.0 mg/kg/injection, schedule: Q04DX002 (ip), vehicle: saline with Tween-80): 94 % of control
